Test results as given in paper PMC4226669, “Anti-cancer potency of tasquinimod is enhanced via albumin-binding facilitating increased uptake in the tumor microenvironment” (Oncotarget, 2014).

Experiments:
[1] = tested on: TRAMP-C2 mouse prostate cancer; experiment: TRAMP-C2 cancer growth and blood vessel density in syngeneic mice; assay type: in vivo; conditions: 5 mg/kg/day via the drinking water
Text: Tasquinimod's oral potency is not restricted to human prostate cancer xenografts growing in immune-suppressed mice.
The source, history, and characteristics of the human prostate cancer cell lines (i.e., LNCaP, LAPC4, and CWR-22Rv1 and the human umbilical vascular endothelial cells (HUVEC) used, as well as cell culture conditions for their in vitro maintenance and the in vivo protocol for their xenografting into immune-deficient nude male mice are as described previously. The source, history, and characteristics of the TRAMP-C2 mouse prostate cancer line, as well as cell culture conditions for their in vitro maintenance and the in vivo protocol for their growth in intact adult male syngeneic C57Bl/6J are as described previously. All lines were mycoplasma negative using the MycoSensor PCR Assay kit (Agilent Technologies) and genetically authenticated within the last 6 months using short tandem repeat profiling conducted by the Johns Hopkins Genetic Resource Core Facility. The source, history, and characteristics of the CWR-RH human prostate cancer xenograft are as described previously. In vitro growth curves were determined as described. Animal studies were conducted according to animal protocol MO09M434 approved by Johns Hopkins Animal Care and Use Committee. […]

[2] = tested on: CWR-22Rv1 human prostate cancer xenografts; experiment: Dose-response growth inhibition of established CWR-22Rv1 xenografts (subcutaneous daily injection); assay type: in vivo, mouse; conditions: 20 days
Description: To confirm these in vitro results, mice were inoculated subcutaneously (SQ) with CWR-22Rv1 cells and remained untreated until the tumors grew to ~ 200 mm3 (i.e., ~ 200 mgs) and then they were randomly assigned to groups (n=10) which were injected SQ daily with 100 μl of propylene glycol vehicle only vs. vehicle delivering 0.1 or 1 mg/kg/day of either tasquinimod or its carboxamide-N-demethylated metabolite. Propylene glycol was used as vehicle due to the low water solubility of the carboxamide-N-demethylated metabolite. After 20 days of continuous treatment, the experiment was terminated and the total weight of each cancer determined and the results expressed both as average tumor weight in grams and as the ratio of the weight of the cancers in the treated vs. vehicle control animals (i.e., T/C ratio), Figure 5A.
The source, history, and characteristics of the human prostate cancer cell lines (i.e., LNCaP, LAPC4, and CWR-22Rv1 and the human umbilical vascular endothelial cells (HUVEC) used, as well as cell culture conditions for their in vitro maintenance and the in vivo protocol for their xenografting into immune-deficient nude male mice are as described previously. The source, history, and characteristics of the TRAMP-C2 mouse prostate cancer line, as well as cell culture conditions for their in vitro maintenance and the in vivo protocol for their growth in intact adult male syngeneic C57Bl/6J are as described previously. All lines were mycoplasma negative using the MycoSensor PCR Assay kit (Agilent Technologies) and genetically authenticated within the last 6 months using short tandem repeat profiling conducted by the Johns Hopkins Genetic Resource Core Facility. The source, history, and characteristics of the CWR-RH human prostate cancer xenograft are as described previously. In vitro growth curves were determined as described. Animal studies were conducted according to animal protocol MO09M434 approved by Johns Hopkins Animal Care and Use Committee. Daily drug dosing via oral gavage, the drinking water, or subcutaneous injection, as well as tumor volume measurements and determination of the blood vessel density within cancers, were as described previously. These experiments were repeated at 3 independent times for each xenograft.

[3] = tested on: CWR-22Rv1, LAPC-4, LNCaP and HUVEC cells; experiment: Nuclear drug uptake in 3 prostate cancer lines and HUVEC; assay type: cell-based, human
Text: To determine the total nuclear concentration of drug (Nt), a modified protocol was needed to allow the rapid lyses of cells and rapid isolation of cell nuclei by differential centrifugation. This could not be accomplished using the usual method of detergent lyses because detergents extract bound drug due to its lipophilicity. Therefore, a detergent free protocol using nitrogen cavitation was developed to rapidly lyse cells and allow the rapid isolation of nuclei via differential centrifugation. Using this cavitation protocol, it was documented that within 1 hour, total nuclear drug concentration (Nt) equals that of the protein-free drug concentration in the media (i.e., 0.2 μM), and that after 4 hours equals PMt (i.e., see Figure 3B, right panel for representative results for the CWR-22Rv1 cells). From 8 hours onward, Nt is more than 10 fold higher than the free and 2 fold higher than the total drug concentration in the media, Figure 3B, right panel. For example at 24 hours post exposure to 1 μM tasquinimod in 10% FBS containing media, the Nt is 2.4 ± 0.3 μM, Figure 3B, right panel. At this 24 hours period, total radioactive drug in isolated nuclei from all 3 prostate cancer lines, as well as HUVEC cells (i.e., nuclear concentration in these 4 lines ranged from 2.2-3.1 μM) was extracted with acetonitrile and the extracts analyzed by HPLC. […] To resolve this, nuclear uptake was determined 24 hours post exposure to 1 μM tasquinimod in serum free media. These studies again documented that nuclear tasquinimod concentration in these 4 cell lines ranged from 2.5-3.5 μM documenting that binding to albumin is not required for cell uptake.
To specifically determine the concentration of tasquinimod within the cell nucleus, 10^7 cells were incubated in 1ml of tissue culture media containing 10% fetal bovine serum (FBS) plus 1μM ^14C-labeled tasquinimod for varying times before the cells were centrifuged rapidly (i.e., 1000xG for 2 min) to remove the drug containing media. The cells were rapidly resuspended in phosphate buffered saline and exposed to pressurized (i.e., 500lbs/sq in) N2 in a nitrogen cavitation devise (i.e., Parr bomb, Parr Instrument Company, Moline, Il) for 5 min before the plasma membranes were lysed by the rapid release of the pressure. This detergent free procedure lyses >98% of the cells without disrupting either mitochondria or lysosomes. […] The radioactivity of this pellet was counted and used to calculate the total amount of tasquinimod associated with 10^7 cell nuclei. To determine the nuclear drug concentration, this total nuclear drug amount was […] the total volume of 10^7 cell nuclei determined from the average diameter of the nuclei determined electronically using Cellometer AutoT4.

[4] = tested on: HUVEC cells; experiment: In vitro cell metabolism in HUVEC; assay type: in vitro ADME, human; conditions: HUVEC, 1 μM, 48 hours
Description: The nuclear uptake results are consistent with tasquinimod being the active drug for both direct therapeutic effects on cancer cells and indirect effects via suppression of the angiogenic response of host endothelial cells. To confirm these conclusions, the concentration of tasquinimod metabolites produced by endothelial cells was compared to the potency of these metabolites for inhibiting angiogenesis. When HUVEC cells are exposed to 1 μM of ^14C-labeled tasquinimod for 48 hours, < 15% of the drug is metabolized with 10% (i.e., 100 nM) being converted to the quinoline-O-demethylated compound and < 2% (i.e., < 20 nM) being converted to the quinoline-N-demethylated or carboxamide-N-demethylated compounds.
(§1) For in vitro studies, cells were incubated with 1μM ^14C-labeled tasquinimod for indicated time period and then the media and cells or cell nuclei separately harvested, deproteinated with acetonitrile, and metabolites separated by HPLC and quantitated as described above.

[5] = tested on: HUVEC and CWR-22Rv1, LAPC-4, LNCaP cells; experiment: In vitro cell metabolism in HUVEC and 3 prostate cancer cell lines; assay type: in vitro ADME, human; conditions: 48 hours, 1 μM, confluent cell density
Text: Since tasquinimod binds to both S100A9 and HDAC4 proteins with high affinities and since S100A9 has both an extracellular and intracellular location while HDAC4 in prostate cancer cells is in the cell nucleus, it is important to evaluate whether tasquinimod is capable of entering cells or whether it only associates with extracellular plasma membrane components. To resolve this question, an in vitro approach was taken using three human prostate cancer cells (i.e., CWR-22Rv1, LAPC-4, and LNCaP) and human umbilical vein endothelial (HUVEC) cells. When 1 μM tasquinimod is added to 10% fetal bovine serum (FBS) supplemented media, there is sufficient albumin to bind 80% of the drug so that the protein-free concentration of tasquinimod in such media is only 0.2 μM. Preliminary studies documented that even after 48 hours of exposure of HUVEC and each of the 3 prostate cancer cell lines to 1 μM at confluent cell density, there was < 15% metabolism of the parental tasquinimod drug with the major metabolite being the O-demethylated quinoline compound.
as §1

Q: For COc1cccc2c1c(O)c(C(=O)N(C)c1ccc(C(F)(F)F)cc1)c(=O)n2C [Tasquinimod], which “inhibition of TRAMP-C2 mouse prostate cancer growth” value ([1]; immune-competent syngeneic mice) is on record?
A: > 80%

Q: What about the “inhibition of blood vessel density within the TRAMP-C2 cancers” value ([1]; treated vs. control) of the same compound?
A: 75 ± 9%

Q: What about the “Avg Tumor Weight” value ([2]; 0.1 mg/kg/day SQ) of the same compound?
A: 0.855 ± 0.203 g

Q: What about the “T/C Ratio” value ([2]; 0.1 mg/kg/day SQ) of the same compound?
A: 0.491

Q: What about the “Avg Tumor Weight” value ([2]; 1 mg/kg/day SQ) of the same compound?
A: 0.668 ± 0.166 g

Q: What about the “T/C Ratio” value ([2]; 1 mg/kg/day SQ) of the same compound?
A: 0.383

Q: What about the “potency on an equal dose basis vs carboxamide-N-demethylated metabolite” value ([2]; 0.1 or 1 mg/kg/day SQ) of the same compound?
A: equipotent

Q: And the “nuclear concentration, range over 4 lines” value ([3]; 24 hours, 1 μM in 10% FBS media)?
A: 2.2 to 3.1 µM

Q: And the “nuclear tasquinimod concentration, range over 4 cell lines” value ([3]; 24 hours, 1 μM in serum free media)?
A: 2.5 to 3.5 µM

Q: And the “drug present within nuclei that is non-metabolized tasquinimod” value ([3]; 24 hours, each of 4 cell lines, HPLC)?
A: > 95%

Q: What about the intracellular drug concentration ([3]; exposure of cancer and endothelial cells to 0.5-1μM) of the same compound?
A: 2 to 3 µM

Q: And the drug metabolized [4]?
A: < 15%

Q: And the “metabolism of the parental drug” value [5]?
A: < 15%
